This note sets out measurements from PMC9861858, “Stereoselective Synthesis and Antiproliferative Activities of Tetrafunctional Diterpene Steviol Derivatives” (International Journal of Molecular Sciences, 2023).

Data set [1] has as its system HeLa cells. Briefly: MTT antiproliferative assay, HeLa. Format: cell-based, human. To be noted: Homo sapiens, HeLa, 72 h, values <20% considered negligible, read-out: Growth inhibition (%) ± SEM, HeLa. The protocol: (§1) The in vitro antiproliferative activities of the synthesised aminotriols 5–18 against a panel of different human cancer cell lines of gynecological origin, including cervical (SiHA and HeLa), breast (MCF7 and MDA-MB-231), ovary (A2780) cancers and NIH/3T3 healthy fibroblasts, were assayed by the MTT method. Cisplatin, a clinically applied anticancer agent was used as a reference compound, and the results are summarised in Figure 3 and Table S1 in the Supplementary Materials.
(§2) The growth-inhibitory effects of the presented terpenes were determined by a standard MTT [3-(4,5-dimethylthiazol2-yl)-2,5-diphenyltetrazolium bromide] assay against […] human cancer cell lines (cervical cancer HeLa and SiHa cell lines, breast cancer MCF-7 and MDA-MB-231 and ovarian cancer A2780). Murine embryonal fibroblast cells (NIH/3T3) were used to determine selectivity. All cell lines were purchased from the European Collection of Cell Cultures (Salisbury, UK). The cells were cultivated in Eagle’s minimal essential medium supplemented with 10% fetal bovine serum, 1% non-essential amino acids, and 1% Antibiotic-Antimycotic complex (penicillin, streptomycin, amphotericin B) at 37 °C in a humidified atmosphere containing 5% CO2. All media and supplements were purchased from Lonza Group Ltd. (Basel, Switzerland). Cancer cells were seeded into 96-well plates (5000 cells/well) after an overnight incubation, and the test compounds were added at two different concentrations (10 μM and 30 μM) and incubated for another 72 h under cell-culturing conditions. Finally, 20 μL of a 5 mg/mL MTT solution was added to each well, and the contents were incubated for a further 4 h. The medium was removed, and the precipitated formazan crystals were dissolved in DMSO by shaking at 37 °C for 60 min. The absorbance was measured at 545 nm by using a microplate reader (SPECTROStar Nano, BMG Labtech, Offenburg, Germany). Clinically utilised anticancer agent cisplatin (Ebewe GmbH, Unterach, Austria) was included as a reference molecule. Calculations were performed using the GraphPad Prism 9 software (GraphPad Software Inc., San Diego, CA, USA).
On the technique in general: Tetrazolium assays rely on reduction of a dye to a coloured formazan, in cell work by metabolically active cells.

The test system of data set [2] is SiHa cells. Briefly: MTT antiproliferative assay, SiHa. It counts as cell-based, human. As to conditions: for inhibition at 10 µM / inhibition at 30 µM: Homo sapiens, SiHa, 72 h, values <20% considered negligible, read-out: Growth inhibition (%) ± SEM, SiHa. The protocol:
as §1, §2

Data set [3] deals with MCF-7 cells. The data set is described as follows: MTT antiproliferative assay, MCF-7. As to conditions: for inhibition at 10 µM / inhibition at 30 µM: Homo sapiens, 72 h, values <20% considered negligible, read-out: Growth inhibition (%) ± SEM, MCF-7; for inhibition at 10 µM: MCF7, 10 μM; for inhibition at 30 µM: MCF7, 30 μM. Format: cell-based, human. As to the method:
as §1, §2

The test system of data set [4] is MDA-MB-231 cells. Briefly: MTT antiproliferative assay, MDA-MB-231. It counts as cell-based, human. To be noted: for inhibition at 10 µM / inhibition at 30 µM: Homo sapiens, 72 h, values <20% considered negligible, read-out: Growth inhibition (%) ± SEM, MDA-MB-231; for inhibition at 10 µM: MDA-MB-231, 10 μM; for inhibition at 30 µM: MDA-MB-231, 30 μM. The protocol:
as §1, §2

In data set [5] the test system is A2780 cells. The data set is described as follows: MTT antiproliferative assay, A2780. It counts as cell-based, human. As to conditions: for inhibition at 10 µM / inhibition at 30 µM: Homo sapiens, 72 h, values <20% considered negligible, read-out: Growth inhibition (%) ± SEM, A2780; for inhibition at 10 µM: A2780, 10 μM; for inhibition at 30 µM: A2780, 30 μM. The protocol:
as §1, §2

The test system of data set [6] is NIH/3T3 fibroblasts. The data set is described as follows: MTT assay on fibroblasts (selectivity). It counts as cell-based, murine. To be noted: Mus musculus, 72 h, values <20% considered negligible, read-out: Growth inhibition (%) ± SEM, NIH/3T3; for inhibition at 10 µM: NIH3T3, 10 μM; for inhibition at 30 µM: NIH3T3, 30 μM. The protocol:
as §1, §2

For data set [7], the system named is human cancer cell lines (HeLa, SiHa, A2780, MCF-7 and MDA-MB-231). The data set is described as follows: MTT antiproliferative assay, whole cancer cell panel. Format: cell-based. To be noted: 10 and 30 μM. The protocol:
as §1, §2

Data set [8] can be described thus: Kinetic aqueous solubility. Format: physicochemical. As to conditions: phosphate buffered saline with 5% DMSO, aqueous with cosolvent or surfactant or cyclodextrin, kinetic from dmso stock; after 2 h, at 37 °C in PBS, pH 7.4, 5% DMSO; target concentration 500 μM; mean ± S.E.M, n = 3. As to the method:
(§3) Filtrates and calibration solutions (5–500 μ M) of the kinetic solubility study and starting donor and acceptor solutions of the PAMPA-GI study were investigated by HPLC-DAD-MS. LC-MS analysis was performed using a Waters 2795 HPLC with a Waters 2487 DAD detector coupled with a Micromass Quattro Ultima TMPt quadrupol mass spectrometer equipped with an ESI source. Measurements were performed on a Waters XSelect C18 (150 × 4.6 mm; 3.5 μm) column with a […] eluent flow rate and the temperature set at 40 °C. The composition of eluent A was MilliQ water with 0.1% formic acid, and that of eluent B was an acetonitrile and MilliQ water mixture (95:5, v/v), also with 0.1% formic acid. The following linear gradient program was used: 0–6 min, 10–100% B; this was held for 3 min, then from 9.01 min on, back to the starting composition of 10% B–90% A. The injection volume was 10 μL for each sample. Chromatographic profiles were registered at dual wavelength, 220 and 240 nm. The mass spectrometer was used in negative ion mode for samples 2, 3 and 4b, and in positive ion mode for other samples. The operating parameters of the MS were: Mass range of m/z 150–700. Nitrogen gas flow rate was 350 L/h, temperature of 350 °C and pressure of 6 bar. The quadrupol temperature was 120 °C, and the capillary voltage was 2.5 kV. Fragmentor’s voltage of 60 V.
(§4) Intestinal (GI) permeability was determined by using an intestinal-specific parallel artificial membrane permeability assay (PAMPA-GI [36]]). […] All solutions were filtered by MultiScreen HTS Vacuum Manifold (Merck Ltd., Budapest, Hungary) after the incubation period. The target concentration was 500 μM for every sample investigated. The intestinal-specific effective permeability of the samples was determined by PAMPA-GI. To prepare starting solutions for a 96-well donor plate, 15 μLs of the 10 mM DMSO stock solution of investigation compounds and 285 μL pH 6.5 phosphate buffer solution were mixed. These solutions were left in a shaking incubator (300 rpm) at 25 °C for 1 h. Meanwhile, a 96-well acceptor plate was filled with 300 μL of pH 7.4 PBS buffer solution containing 5% DMSO. The intestinal-specific artificial membrane was prepared the following way: the hydrophobic filter material of the donor plate was coated with a mixture of phosphatidylcholine/cholesterol = 2:1 (5 μL, 4 % (w/v) in dodecane). After that, all donor wells were filled with 150 μL of the starting donor solutions, and they were carefully placed on the acceptor plate and incubated at 37 °C for 4 h. After the end of the incubation period the donor and acceptor plates were separated carefully. A total of 150 μL of the donor, acceptor and the starting donor solutions were sampled and analysed with HPLC-DAD-MS. The effective permeability and membrane retention of drugs were calculated using the following equations: Pe=−2.303/A·(t−τss)·1/1+rv·lg[−rv+(1+rv/1−MR)·]CD(t)/CD(0) MR=1−CD(t)/CD(0)−VA·CA(t)/VD·CD(0) where Pe is the effective permeability coefficient (cm/s), A is the filter area (0.3 cm^2), VD and VA are the volumes in the donor (0.15 cm^3) and acceptor phase (0.3 cm^3), t is the incubation time (s), τSS is the time to reach steady-state (s), CD(t) is the concentration of the compound in the donor phase at time point t (mol/cm^3), CD(0) is the concentration of the compound in the donor phase at time point zero (mol/cm^3), rv is the aqueous compartment volume ratio (VD/VA), MR is the membrane retention factor.

Data set [9] in a line: Intestinal-specific parallel artificial membrane permeability assay (PAMPA-GI). Format: in vitro ADME. To be noted: gradient pH system (pH donor 6.5 → pH acceptor 7.4) after 4 h, at 37 °C, mean ± S.E.M, n = 3. The protocol:
as §3, §4

Converted amounts (≈) assume the structure as drawn. “Also recorded” adds a separate entry of the source.

As a reminder, the melting point is the temperature, or range, at which the solid turns liquid. On to `C=C1[C@H](O)[C@@]23CCC4[C@@](C)(CCC[C@@]4(C)C(=O)OC)C2CC[C@]1(O)C3` (stereo partly drawn) [Compound 3, (4R,6aR,7R,9S,11bS)-Methyl 7,9-Dihydroxy-4,11b-dimethyl-8-methylenetetradecahydro-6a,9-methanocyclohepta[a]naphthalene-4-carboxylate], for which the melting point fell in the range of 253 to 255 °C. Besides, in data set [1], the inhibition at 10 µM is < 20% and the inhibition at 30 µM came out at 27.9 ± 2.3%. Also, in data set [2], the inhibition at 10 µM was < 20% and the inhibition at 30 µM was determined as 30.7 ± 2.71%. Moreover, in data set [3], the inhibition at 10 µM is < 20% and the inhibition at 30 µM is 49.2 ± 2.19%. For the same compound, in [4], the inhibition at 10 µM is < 20% and the inhibition at 30 µM is < 20%. Also, in data set [5], the inhibition at 10 µM was < 20% and the inhibition at 30 µM is < 20%. For the same compound, in data set [6], the inhibition at 10 µM is < 20% and the inhibition at 30 µM is < 20%. Moreover, the “Antiproliferative activity on the cancer cell panel, in words” value in data set [7] is reported as “any notable effect was not detectable”.
What is called kinetic solubility is the concentration staying in solution when a stock, usually in DMSO, is diluted into the medium. On to `COC(=O)[C@]1(C)CCC[C@@]2(C)C3CC[C@]4(O)C[C@@]3(CCC21)[C@@H](O)[C@]41CN(Cc2ccccc2)CO1` (stereo partly drawn) [Compound 18, (4R,5’R,6aR,7R,9S,11bS)-Methyl 3’-Benzyl-7,9-dihydroxy-4,11b-dimethyldodecahydro-1H-spiro [6a,9-methanocyclohepta[a]naphthalene-8,5’-oxazolidine]-4-carboxylate], for which the melting point was 123 to 125 °C. Moreover, in data set [1], the inhibition at 10 µM is < 20% and the inhibition at 30 µM turned out to be 41.1 ± 1.95%. The “Antiproliferative effect on SiHa, in words” value in data set [2] (10 and 30 μM) is listed as “moderate activity”. For the same compound, in data set [2], the inhibition at 10 µM is < 20% and the inhibition at 30 µM is 66.1 ± 2.45%. For the same compound, the “Antiproliferative effect / selectivity on MCF-7, in words” value in data set [3] (10 and 30 μM) was “Selectivity for MCF-7 cells increased slightly”. Further, in data set [3], the inhibition at 10 µM was < 20% and the inhibition at 30 µM came out at 95.18 ± 0.35%. Further, the “Antiproliferative effect / selectivity on MDA-MB-231, in words” value in [4] (10 and 30 μM) is “moderate activity; also recorded: smaller but also selective antiproliferative effect”. Moreover, in [4], the inhibition at 10 µM is < 20% and the inhibition at 30 µM was found to be 87.7 ± 0.91%. In data set [5] (10 and 30 μM), the “Antiproliferative effect on A2780, in words” value was “moderate activity”. In [5], the inhibition at 10 µM is < 20% and the inhibition at 30 µM was found to be 58.5 ± 3.18%. Besides, in [6], the inhibition at 10 µM is < 20% and the inhibition at 30 µM was < 20%. The same compound showed a solubility (kinetic) at 2 h in data set [8] of 321 ± 88.5 µM (≈ 155 µg/mL). In addition, in data set [9], the “PAMPA-GI MR (membrane retention)” value was determined as 2.7 ± 0.4%.
Regarding `COC(=O)[C@]1(C)CCC[C@@]2(C)C3CC[C@]4(O)C[C@@]3(CCC21)[C@@H](O)[C@]4(O)CN[C@H](C)c1ccc2ccccc2c1` (stereo partly drawn) [Compound 12, (4R,6aR,7R,8R,9S,11bS)-Methyl 7,8,9-Trihydroxy-4,11b-dimethyl-8-((((R)-1-(naphthalen-2-yl)ethyl)amino)methyl)tetradecahydro-6a,9-methanocyclohepta[a]naphthalene-4-carboxylate], the melting point fell in the range of 93 to 95 °C. In addition, in data set [1], the inhibition at 10 µM was found to be 96.82 ± 0.56% and the inhibition at 30 µM was found to be 96.94 ± 0.49%. In data set [2], the inhibition at 10 µM came to 96.08 ± 0.6% and the inhibition at 30 µM was 95.49 ± 0.86%. Moreover, in data set [3], the inhibition at 10 µM was determined as 96.35 ± 0.36% and the inhibition at 30 µM was 95.87 ± 0.38%. In [4], the inhibition at 10 µM came to 95.84 ± 0.29% and the inhibition at 30 µM was 95.62 ± 0.34%. In data set [5], the inhibition at 10 µM was found to be 96.68 ± 0.36% and the inhibition at 30 µM was found to be 96.38 ± 0.3%. Further, in data set [6], the inhibition at 10 µM came out at 90.07 ± 0.51% and the inhibition at 30 µM stood at 94.67 ± 0.24%. For the same compound, the kinetic solubility at 2 h in data set [8] was 13.3 ± 0.9 µM (≈ 7.13 µg/mL). Moreover, the “PAMPA-GI MR (membrane retention)” value in [9] amounted to 92.6 ± 2.1%.
On to `C=C1[C@H](O)[C@@]23CC[C@H]4[C@@](C)(CCC[C@@]4(C)C(=O)O)[C@@H]2CC[C@]1(O)C3` [Compound 2], for which, in data set [7], the “Antiproliferative activity on the cancer cell panel, in words” value was “any notable effect was not detectable”. For the same compound, the solubility (kinetic) at 2 h in data set [8] turned out to be 443 ± 35.7 µM (≈ 148 µg/mL). Also, in data set [9] (PAMPA, read-out: PAMPA-GI Pe), the Papp at 4 h, 500 µM turned out to be 5.2 ± 0.2 nm/s. The “PAMPA-GI MR (membrane retention)” value in data set [9] stood at 6.5 ± 0.7%.
